In patent US8362011B2, “Tricyclic triazolic compounds” (Laboratories del Dr. Esteve, S.A., priority 2007, dated 2013):
Where “and” joins values, the source holds several entries; their conditions need not be identical. Equal values may be shown once.

Legend:
σ1-receptor = molecular target: T1, σ1-receptor (Cavia porcellus, UniProt Q60492); assay: σ1-receptor binding assay, [3H]-(+)-pentazocine, guinea pig brain membranes; settings: [3H]-(+)-pentazocine 5.0 nM; for % Displacement (10^−6 M): 10^−6 M compound
T1 construct: Guinea pig brains were homogenized in 10 vols; (w/v) of Tris-HCl 50 mM 0.32 M sucrose; from tissue; host or cells: guinea pig brain membranes
Description: Brain membrane preparation and binding assays for the σ1-receptor were performed as described (DeHaven-Hudkins, D. L., L.C. Fleissner, and F. Y. Ford-Rice, 1992, Characterization of the binding of [^3H](+)pentazocine to σ recognition sites in guinea pig brain, Eur. J. Pharmacol. 227, 371-378) with some modifications. Guinea pig brains were homogenized in 10 vols. (w/v) of Tris-HCl 50 mM 0.32 M sucrose, pH 7.4, with a Kinematica Polytron PT 3000 at 15000 r.p.m. for 30 s. The homogenate was centrifuged at 1000 g for 10 min at 4° C. and the supernatants collected and centrifuged again at 48000 g for 15 min at 4° C. The pellet was resuspended in 10 volumes of Tris-HCl buffer (50 mM, pH 7.4), incubated at 37° C. for 30 min, and centrifuged at 48000 g for 20 min at 4° C. Following this, the pellet was re-suspended in fresh Tris-HCl buffer (50 mM, pH 7.4) and stored on ice until use.
The radioligand used was [^3H]-(+)-pentazocine at 5.0 nM and the final volume was 200 μl. The incubation was initiated with the addition of 100 μA of membrane at a final tissue concentration of approximately 5 mg tissue net weight/mL and the incubation time was 150 m. at 37° C. After incubation, the membranes were collected onto pretreated glass fiber filterplate (MultiScreen-FC, Millipore), with polyethylenimine 0.1%. The filters were washed two times with 200 μA of washing buffer (50 mM Tris Cl, pH=7.4) and then 25 μA of Ecoscint H liquid scintillation cocktail were added. Microplates were allowed to set for several hours and then quantified by liquid scintillation spectrophotometry (1450 Microbeta, Wallac). Nonspecific binding was determined with 1 μM haloperidol.

T1 sequence (Q60492 whole entry): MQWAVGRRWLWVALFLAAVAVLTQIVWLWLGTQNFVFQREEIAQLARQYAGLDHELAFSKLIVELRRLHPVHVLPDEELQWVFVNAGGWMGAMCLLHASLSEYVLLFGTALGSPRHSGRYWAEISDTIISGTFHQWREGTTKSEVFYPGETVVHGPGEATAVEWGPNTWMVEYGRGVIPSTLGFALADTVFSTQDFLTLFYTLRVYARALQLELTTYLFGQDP

SMILES | Ki (σ1-receptor) | melting point [°C] | % Displacement (10^−6 M) (σ1-receptor) [%]
CCc1nnn2c1CO[C@@H]1CN(Cc3ccc(OC)cc3)C[C@H]12 (relative stereo) [Example 3, (5a,8a-trans)-3-ethyl-7-(4-methoxybenzyl)-4,5a,6,7,8,8a-hexahydro pyrrolo[3,4-b][1,2,3]triazolo[1,5-d][1,4]oxazine] | 298 ± 76.2 nM | – | –
c1ccc(CN2C[C@@H]3[C@@H](C2)OCc2cnnn23)cc1 (relative stereo) [Example 4, (5a,8a-trans)-7-benzyl-4,5a,6,7,8,8a-hexahydropyrrolo[3,4-b][1,2,3] triazolo[1,5-d][1,4]oxazine] | – | 101 to 102 | <50
Cc1nnn2c1CO[C@@H]1CN(Cc3ccccc3)C[C@H]12 (relative stereo) [Example 5, (5a,8a-trans)-7-benzyl-3-methyl-4,5a,6,7,8,8a-hexahydropyrrolo[3,4-b][1,2,3]triazolo[1,5-d][1,4]oxazine] | > 1000 nM | 103 to 104 | –
FC(F)(F)c1ccc(-c2nnn3c2CO[C@@H]2CN(Cc4ccccc4)C[C@H]23)cc1 (relative stereo) [Example 6, (5a,8a-trans)-7-benzyl-3-(4-(trifluoromethyl)phenyl)-4,5a,6,7,8,8a-hexa hydropyrrolo[3,4-b][1,2,3]triazolo[1,5-d][1,4]oxazine] | 31.3 ± 8.7 nM | 137 to 138 | –
CCc1nnn2c1CO[C@@H]1CN(Cc3ccccc3)C[C@H]12 (relative stereo) [Example 8, (5a,8a-trans)-7-benzyl-3-ethyl-4,5a,6,7,8,8a-hexahydropyrrolo[3,4-b][1,2,3]triazolo[1,5-d][1,4]oxazine] | 375 ± 1.6 nM | 106 to 107 | –
Clc1ccc(-c2nnn3c2CO[C@@H]2CN(Cc4ccccc4)C[C@H]23)cc1 (relative stereo) [Example 9, (5a,8a-trans)-7-benzyl-3-(4-chlorophenyl)-4,5a,6,7,8,8a-hexahydro pyrrolo[3,4-b][1,2,3]triazolo[1,5-d][1,4]oxazine] | – | 197 to 198 | 87
c1ccc(CN2C[C@@H]3[C@@H](C2)OCc2c(-c4ccccc4)nnn23)cc1 (relative stereo) [Example 11, (5a,8a-trans)-7-benzyl-3-phenyl-4,5a,6,7,8,8a-hexahydropyrrolo[3,4-b][1,2,3]triazolo[1,5-d][1,4]oxazine] | 26.9 ± 4.4 nM | 154 to 155 | –
c1ccc(-c2nnn3c2CO[C@@H]2CNC[C@H]23)cc1 (relative stereo) [Example 13, (5a,8a-trans)-3-phenyl-4,5a,6,7,8,8a-hexahydropyrrolo[3,4-b][1,2,3] triazolo[1,5-d][1,4]oxazine] | 283 nM and 262 nM | 165 to 167 | –
O=C(CCc1ccccc1)N1C[C@@H]2[C@@H](C1)OCc1c(-c3ccccc3)nnn12 (relative stereo) [Example 28, 3-phenyl-1-((5a,8a-trans)-3-phenyl-5a,6,8,8a-tetrahydropyrrolo[3,4-b][1,2,3]triazolo[1,5-d][1,4]oxazin-7(4H)-yl)propan-1-one] | 563 nM | 205 to 206 | –
CCCC(=O)N1C[C@@H]2[C@@H](C1)OCc1c(-c3ccccc3)nnn12 (relative stereo) [Example 29, 1-((5a,8a-trans)-3-phenyl-5a,6,8,8a-tetrahydropyrrolo[3,4-b][1,2,3]triazolo[1,5-d][1,4]oxazin-7(4H)-yl)butan-1-one] | 334 nM and 341 nM | 202 to 204 | –
CCCCCN1C[C@@H]2[C@@H](C1)OCc1c(-c3ccccc3)nnn12 (relative stereo) [Example 41, (5a,8a-trans)-7-pentyl-3-phenyl-4,5a,6,7,8,8a-hexahydropyrrolo[3,4-b][1,2,3]triazolo[1,5-d][1,4]oxazine] | 5.47 nM and 6.79 nM | – | –
